Assay results taken from patent publication US10772827B2, “Composition for treating apoplexy through nasal administration” (INDUSTRY-UNIVERSITY COOPERATION FOUNDATION HANYANG …, priority 2015, dated 2020).
Where no end group is shown, it is not given here.

How the values were obtained:
[1] = biological target: T1, Fas (Mus musculus, UniProt P25446); experiment: FTP binding to Fas-expressing hypoxic Neuro2a cells (flow cytometry, confocal microscopy); details: for binding to Fas-expressing hypoxic cells: hypoxic Neuro2a cells (OGD 24 h)
T1 construct: Neuro2a cells were cultured in an oxygen glucose deprivation (OGD) medium for 24 hour under hypoxic conditions to induce Fas expression; endogenous in cells; host or cells: Neuro2a (mouse neuroblastoma, ATCC), hypoxia/OGD-induced
T1 sequence (P25446 22-327): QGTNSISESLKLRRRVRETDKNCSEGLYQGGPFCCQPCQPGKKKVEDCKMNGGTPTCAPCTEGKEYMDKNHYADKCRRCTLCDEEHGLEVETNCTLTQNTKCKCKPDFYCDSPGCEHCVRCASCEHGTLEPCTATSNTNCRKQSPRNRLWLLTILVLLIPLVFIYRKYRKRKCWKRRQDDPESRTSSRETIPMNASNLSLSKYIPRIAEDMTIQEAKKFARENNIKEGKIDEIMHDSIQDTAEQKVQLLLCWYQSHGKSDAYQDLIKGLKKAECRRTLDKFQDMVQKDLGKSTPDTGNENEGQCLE
Method: (§1) Mouse neuroblastoma (Neuro2a, N2a) cells were obtained from ATCC and cultured in Dulbecco's Modified Eagle's Medium (DMEM) containing 10% fetal bovine serum (FBS), penicillin (100 IU/ml), and streptomycin (100 μg/ml). To duplicate an ischemia/reperfusion environment in vitro, the Neuro2a cells were cultured in a 6-well plate and maintained under a hypoxic condition (94% N2, 5% CO2, and 1% O2) in an oxygen glucose deprivation (OGD) medium (Life Technologies) for 24 hours. Subsequently, the cells were re-oxygenated in DMEM supplemented with 10% FBS (5% CO2, 20% O2, 37° C.) for 24 hours.
To identify co-localization of a FTP and a Fas receptor, Neuro2a cells were seeded on a cover slip and maintained under a hypoxic condition in an OGD medium for 24 hours. After incubating for 24 hours, the cells were treated with PBS containing 1% BSA and 0.05% Tween 20 and blocked at 37° C. for 2 hours, followed by staining with an anti-Fas antibody (Abcam) and an Alexa647-conjugated FTP at 4° C. for 2 hours. After incubating for 2 hours, the cells were washed three times with PBS containing 0.05% Tween 20, and stained with a secondary antibody (Abcam) at 4° C. for 2 hours under a dark condition. Nuclei of the cells were counterstained with Hoechst 33342 and fixed with an aqueous mounting solution (Abcam). Fluorescence signals in the cells were obtained using a TSP-SP5 confocal microscope (Leika, Germany).

[2] = biological target: T1, Fas; experiment: Competition assay of a Fas antibody and a FTP on hypoxic Neuro2a cells; format: binding; details: FIG. 1C
Method: FIG. 1C illustrates the results of a competition assay of a Fas antibody and a FTP, wherein the representative histograms show binding of a Fas antibody to hypoxic cells after treatment with a FTP; data is expressed as mean±SD of three replicated experiments; **P<0.01, ***P<0.001; Normoxia represents cells maintained under normal culture conditions, and Hypoxia represents cells cultured in an OGD medium for 24 hours, followed by re-oxygenation in a serum-containing DMEM medium for 24 hours; and FTP: Fas targeting peptide, Scr-FTP: scrambled peptide.

[3] = test system: hypoxia-induced Neuro2a cells; experiment: Inhibition of in vitro Fas-mediated apoptosis (PE Annexin V / 7-AAD flow cytometry); format: cell-based, mouse
Method: Mouse neuroblastoma (Neuro2a, N2a) cells were obtained from ATCC and cultured in Dulbecco's Modified Eagle's Medium (DMEM) containing 10% fetal bovine serum (FBS), penicillin (100 IU/ml), and streptomycin (100 μg/ml). To duplicate an ischemia/reperfusion environment in vitro, the Neuro2a cells were cultured in a 6-well plate and maintained under a hypoxic condition (94% N2, 5% CO2, and 1% O2) in an oxygen glucose deprivation (OGD) medium (Life Technologies) for 24 hours. Subsequently, the cells were re-oxygenated in DMEM supplemented with 10% FBS (5% CO2, 20% O2, 37° C.) for 24 hours. To examine an inhibitory effect of a FTP, hypoxia-induced Neuro2a cells were treated with 1,000 μM of a FTP. After incubating for 24 hours, the cells were stained using a PE Annexin V apoptosis detection kit (BD Pharmingen™) according to the manufacturer's instructions.

[4] = test system: cleaved caspase-8 and caspase-3; experiment: Western blotting of cleaved caspase-8 and caspase-3 in hypoxic Neuro2a cells; format: cell-based, mouse
Method: as §1
Neuro2a cells were lysed using a RIPA lysis buffer in the presence of […] phenylmethylsulfonyl fluoride (PMSF) as a protease inhibitor. A total of 50 μg of protein was loaded in a 12% SDS-PAGE gel and transferred onto a nitrocellulose transfer membrane (Whatman). Blots were blocked with 5% skim milk in TBST at room temperature for 2 hours and incubated at 4° C. with primary antibodies (Abcam). After a predetermined period of time, the blots were washed with TBST and incubated for 2 hours with secondary polyclonal antibodies coupled with HRP. After washing the blots three times with TBST, the blots were developed using an ECL western blotting substrate (Promega).

[5] = test system: MCAO rats; experiment: TTC staining and measurement of infarct volume in MCAO rats; format: in vivo, rat; details: 15 mmol I.N. 12 hours after reperfusion
Method: (§2) Briefly, animals were anesthetized with 5% isoflurane. […] Thereafter, the CCA was completely occluded using a clip.
After a predetermined period of treatment, the brain was immediately removed. The expected area of damage in the brain was sliced into 3 slices (2 mm thick) including a brain matrix and then incubated in 2% 2,3,5-triphenyltetrazolium chloride (TTC, Sigma) at 37° C. for 10 minutes. The brain slices were then fixed in 4% paraformaldehyde and kept at 4° C. for 24 hours until imaging and photographing. The infarct volume was measured using Image J developed by the U.S. National Institute of Health (NIH) and calculated as commonly known.

[6] = test system: MCAO rats; experiment: H&E histology of the brain of MCAO rats; format: in vivo, rat; details: FTP-inoculated group, day 1 to day 5 after reperfusion, FIG. 4F
Source text: as §2
Paraffin-embedded brain sections were de-paraffinized, rehydrated and then subjected to H&E staining according to standard protocols. The H&E stained sections were covered with cover slips and roughly analyzed using an optical microscope.

[7] = test system: MCAO rats; experiment: TUNEL analysis of apoptosis in brain sections of MCAO rats; format: in vivo, rat; details: intranasal FTP, FIG. 4G
Method: as §2
A extent of apoptosis in de-paraffinized and rehydrated brain sections was analyzed through TUNEL analysis using an In Situ Cell Death Detection Kit (Roche, Germany) according to the manufacturer's instructions.

[8] = test system: MCAO rats; experiment: Kaplan-Meier survival of MCAO rats; format: in vivo, rat; details: for animals survived: intranasal delivery; for rats that died over time: of the 18 rats per group, day 1 until day 5 after reperfusion, FIG. 4H
Method: as §2
The survival rate of each group of animals was evaluated using a previously described method^[3].

[9] = test system: MCAO rats; experiment: Neurological evaluation (deficit grade 0-4) of MCAO rats; format: in vivo, rat
Method: as §2
The neurological deficits of each group of rats with or without peptide treatment were evaluated using a commonly known method^[2]. […] Next, the animals were placed on absorbent pads and tails thereof were pulled to examine their grips power. […] The rats were placed in a sufficiently wide space and allowed to move freely. Grade 3 was given for the case in which rats moved in a circle towards the paralyzed side when tails thereof were pulled. Grade 4 was given for the case in which rats spontaneously moved in a circle under a free environment.

[10] = rat, in vivo
Method: Intranasal administration of peptides was performed using a pressurized olfactory delivery (POD) device (Impel Neuropharma). Briefly, rats were kept in an isoflurane chamber containing 5% isoflurane for 3 minutes. After the animals were deeply anesthetized, the rats were placed in a supine position for drug injection. A POD tip (Impel Neuropharma) was carefully inserted into a nostril, and then a prefilled 25 μl catheter tube was slowly inserted appropriately 2 cm into the nostril. Thereafter, a peptide solution (PBS) (15 μl of PBS and 500 nM peptide) was slowly injected thereinto. A total of 700 μg of the FTP peptide was intranasally injected 12 hours after MCAO. After intranasal administration, the rats were maintained in the supine position for 5 minutes before they kept back to their designated cage.
A total of 500 μg of FTP was conjugated with Alexa-488 according to the manufacturer's guidelines (Molecular probes, Life Technologies). The Alexa^488 conjugated short peptide was intranasally injected with a final volume of 25 μl into each nostril using a POD device 12 hours after MCAO. After a predetermined period of time, the animals were sacrificed and tissues were excised therefrom. The tissues were washed with cold PBS and surface meninges were removed to avoid auto-fluorescence.

[11] = biological target: T2, Fas on hypoxic mouse neuroblastoma Neuro2a cells (mouse, UniProt P25446 22-327); experiment: flow cytometry, Alexa488-labeled peptide on hypoxic Neuro2a cells
T2 construct: whole, on cells; also called Fas receptor; Fas-expressing hypoxic cells
T2 sequence (looked up): T1 sequence (P25446 22-327)

[12] = fluorescence-labeled peptide, FIG. 1B
[13] = hypoxic Neuro2a cells, 1,000 μM FTP, FIG. 2B

Which “binding to Fas-expressing hypoxic cells” value [1, 12] does the source give for YCDEHFCY [FTP] here?
The value was “only bound to the Fas-expressing hypoxic cells”.

What about the “binding to normal cells” value ([1]; fluorescence-labeled peptide, normal (normoxic) Neuro2a cells, FIG. 1B) of the same molecule?
The value was “die not bind to normal cells”.

What about the “engagement to Fas-expressing cells, confocal microscopic images” value ([1]; hypoxic Neuro2a cells, FIG. 2A) of the same molecule?
Its value is “strongly engaged to the Fas-expressing cells”.

And the “competitive assay between FTP and α-Fas antibody” value [2]?
The value was “bound to different regions of a Fas molecule”.

And the “decrease of annexin V positive cells” value [3, 13]?
The value was about 50%.

And the “decrease of annexin V/7-ADD positive cells” value [3, 13]?
The value was about 50%.

And the “decrease in 7-AAD positive cells” value ([3]; hypoxic Neuro2a cells, after FTP treatment)?
The value was “any significant decrease was not observed”.

And the “decrease of cleaved caspase-3” value ([4]; FIG. 2C)?
The value was 40%.

And the “decrease of cleaved caspase-8” value ([4]; FIG. 2C)?
Its value is about 50%.

What about the “expression of activated cleaved caspase-8 and activated caspase-3 according to concentration” value ([4]; no dramatic change at full-length enzyme level, FIG. 3) of the same molecule?
Its value is “decreased in a dose-dependent manner”.

And the “size of the infarcted area compared to Mock (PBS)- or Scr-FTP-treatment” value ([5]; as early as day 1 after MCAO)?
Its value is “significantly reduced the size of the infarcted area”.

And the infarct volume ([5]; day 1)?
The infarct volume was 26%.

And the infarct volume ([5]; day 2)?
The infarct volume was 29%.

What about the infarct volume ([5]; day 3) of the same molecule?
Its infarct volume is 18%.

What about the infarct volume ([5]; day 5) of the same molecule?
The infarct volume was 7%.

And the “recovery from the infarct” value ([5]; day 5 after reperfusion)?
The value was “almost completely recovered”.

And the “interstitial edema and pyknotic nuclei” value [6]?
Its value is “started to reduce on day 1 after reperfusion and were alleviated on day 5 thereafter”.

And the “number of apoptotic cells (TUNEL positive cells)” value ([7]; day 1 after reperfusion)?
The value was 26%.

And the “number of apoptotic cells (TUNEL positive cells)” value ([7]; day 5 after reperfusion)?
Its value is 9%.

And the animals survived ([8]; first of three values printed for 1 to 5 days after reperfusion)?
Its animals survived is 90%.

And the animals survived ([8]; second of three values printed for 1 to 5 days after reperfusion)?
The animals survived was 80%.

What about the animals survived ([8]; third of three values printed for 1 to 5 days after reperfusion) of the same molecule?
The animals survived was 80%.

What about the “rats that died over time” value [8] of the same molecule?
Its value is 2 rats.

What about the “neurological deficits score compared to the saline-treated group” value ([9]; FIG. 4I) of the same molecule?
The value was “improved”.

What about the “neurological functions, average grade” value ([9]; grade 0-4, first of four values between day 1 and day 5 after reperfusion) of the same molecule?
The value was 3.3.

And the “neurological functions, average grade” value ([9]; grade 0-4, fourth of four values between day 1 and day 5 after reperfusion)?
The value was 1.3.

What about the “neurological functions, average grade” value ([9]; grade 0-4, second of four values between day 1 and day 5 after reperfusion) of the same molecule?
The value was 2.3.

And the “neurological functions, average grade” value ([9]; grade 0-4, third of four values between day 1 and day 5 after reperfusion)?
Its value is 2.3.

Which “fluorescence exposure in the liver and kidneys, Scr-A^488 group versus FTP-A^488 group” value [10] does the source give for “Scr-A^488: scrambled peptide labeled with Alexa^488 (YCNSTVCY; cysteine pairing not given here; also: labeled with Alexa-488, position not given here) [reference compound]” here?
Its value is “much more”.

And the “fluorescence signal in other organs” value [10]?
The value was “no signal was found”.

And the “fluorescence signal in the lungs” value [10]?
Its value is “slight fluorescence signal”.

What about the “localization of labeled peptide in the brain” value [10] of the same molecule?
Its value is “strong localization”.

And the “retention of labeled peptide in the brain” value [10]?
Its value is “not maintained”.

Which results are given for “FTP-A^488: FTP conjugated with Alexa-488 for bio-distribution (YCDEHFCY; cysteine pairing not given here; also: conjugated with Alexa-488, position not given here)”?
fluorescence signal in other organs [10]: no signal was found; fluorescence signal in the lungs [10]: slight fluorescence signal; localization of labeled peptide in the brain [10]: localization of labeled peptides occurred; retention of labeled peptide in the brain [10]: maintained in the brains of MCAO-treated rats

What does the source list for “YCNSTVCY [ScrFTP, scrambled peptide used as a control peptide, reference compound]”?
binding to Fas-expressing hypoxic cells [1, 12]: did not bind to the hypoxic cells; decrease of cleaved caspase-8 ([4]; FIG. 2C): did not decrease cleaved caspase 8; rats that died over time [8]: 11 rats; progressive effect on behavior after MCAO ([9]; between day 1 and day 5): worsened

B1: scrambled peptide (Scr-FTP) (peptide)
peptide: YCNSTVCY
modifications: cysteine pairing not given here; also: Alexa488 label in binding assays, site not given here
notes: also called scrambled-FTP; Scr-A488
Does B1 bind [11]?
Result: no binding
